Measured values taken from ChEMBL document CHEMBL1145221, “2,3-Diphenylpropionic acids as potent VLA-4 antagonists” (Bioorg Med Chem Lett, 2005).
Converted amounts (≈) assume the structure as drawn.

Experiment: physchem
Settings: water

Compound	solubility [µg/mL]
Cc1cccc(Br)c1C(=O)N[C@@H](Cc1ccc(NC(=O)c2c(Cl)cccc2Cl)cc1)C(=O)O	330 (≈ 600 µM)
COc1cccc(OC)c1-c1ccc(C[C@H](NC(=O)c2c(Cl)cccc2Cl)C(=O)O)cc1	219 (≈ 462 µM)
